Assay [1] concerns IRS1. The assay can be described thus: IRS1 Ser-phosphorylation and IRS1 levels in MCF7 cells. Format: cell-based. The conditions noted are these: breast cancer MCF7 cells. As to the method:
Tyrosine autophosphorylation of the β-subunit of IGF1R as well as downstream signaling induced by IGF1R were assayed in breast cancer MCF7 cells. Tyrosine autophosphorylation of the EGFR and the EGFR signaling was assayed in prostate cancer PC3 cells. Tyrosine autophosphorylation of the PDGFR and its signaling was assayed in fibroblasts overexpres sing PDGFR. Tyro sine autophosphorylation of the IR and its signaling was assayed in fibroblasts overexpressing IR. Cells were seeded in 6-well plates (MCF7-250,000 cells/well, PC3-150,000 cells/well, fibroblasts-140,000 cells/well) and 24 hours later medium was replaced by serum-free medium (DMEM supplemented with 100 units/ml penicillin and 100 μg/ml streptomycin). Following 20 hours of serum-starvation medium was replaced with medium containing various concentrations of the inhibitors in 0.1% DMSO for additional 4 hours. Cells were then stimulated for 5 min with 50 ng/ml IGF-1 (MCF7 cells), 20 ng/ml EGF (PC3 cells), 50 ng/ml PDGF (fibroblasts overexpressing PDGFR) or 100 nM insulin (fibroblasts overexpressing IR), washed twice with PBS and lysed by boiling sample buffer (10% glycerol, 50 mM Tris-HCl, pH 6.8, 3% SDS, and 5%, β-mercaptoethanol). Equal amounts of protein per lane were separated by 8% SDS-PAGE and transferred to a nitrocellulose membrane (Sartorius AG). Phosphorylated proteins were immunoblotted with anti-phospho-IGF1R (phosphor-IGF1R), anti-phosphotyrosine-IRS1 (phospho-IRS1), anti-phospho(T308)Akt (phospho-PKB), anti-phospho-Erk (phospho-ERK), anti-phosphotyrosine 4G10&PY20 (pY-EGFR or pY-PDGFR), anti-phospho-Ser^636/639-IRS1 (pS^636/639-IRS1) and anti-phospho-STAT3 (phospho-STAT3) antibodies. Detection was performed with horseradish peroxidase-conjugated secondary antibody using the ECL system. Blots were then stripped of antibodies, blocked with TBST with 5% low fat milk and re-probed with antibodies detecting both the phosphorylated and the non-phosphorylated corresponding proteins e.g. IGF1Rβ, IRS1, PKB, ERK, IRβ, PDGFR and Stat3.
(§1) In addition, lysates were prepared from cells exposed to inhibitors at various concentrations for 24 hours in the presence or the absence of FCS without stimulation. Lysate preparation and western blot were the same as described above. Apoptosis was detected by immunoblotting with rabbit anti-PARP antibodies.

For assay [2], the system named is IRS1. The assay can be described thus: IRS1 Ser-phosphorylation in YUMAC cells. Format: cell-based, human. The conditions noted are these: metastatic melanoma YUMAC cells. As to the method:
as §1

Assay [3] relates to PC3. The assay can be described thus: Clonogenic assay PC3. Format: cell-based. The note with it: Homo sapiens, PC-3, Prostate. Here is the method: (§2) Various cancer cells (listed in table 1) were seeded at a very low concentration (19 cells/well in 96-well plates or 63 cells/well in 24-well plates) in growth medium. A day later medium was replaced with growth medium containing various concentrations of inhibitors in a final concentration of 0.1% DMSO. The inhibitor-containing medium was refreshed three times a week. Following approximately two weeks cells were fixed by adding Gluteraldehide (0.5% final concentration) for 10 min, washed three time with DDW, once with borate buffer 0.1M and stained for 1 hour with 1% Methylene Blue in borate buffer 0.1M. Access stain was washed with water, and following drying colonies were counted. Alternatively, stain was extracted by 0.1N HCl for 1 hour and absorbance at 620 nm was measured by ELISA Reader. The assays were performed in triplicates. The values in table 1 represent IC50 values derived from the dose-dependent growth curves obtained.

In assay [4] the test system is HT29. The assay can be described thus: Clonogenic assay HT29. It counts as cell-based. The note with it: Homo sapiens, HT-29, Colon. Here is the method:
as §2

For assay [5], the system named is PC3-MM2. The assay can be described thus: Proliferation assay PC3-MM2. It counts as cell-based. The note with it: Homo sapiens, PC3MM2, Prostate, 72 hours. As to the method: (§3) Various cancer cell lines (listed in table 1) were plated at a density of 1000-5000 cells/well in 96-well plates in 90111 growth medium containing 10% FCS, 100 units/ml penicillin and 100 μg/ml streptomycin. Inhibitors were added a day later in 10 μl of 1% DMSO in DDW to obtain final concentrations of 0, 0.1, 0.3, 1, 3, and 10 μM. The final concentration of DMSO (0.1% DMSO) was kept constant in all samples. Medium with inhibitors was refreshed a day and two days later. Following exposure of the cells to the inhibitors for 72 hours at 37° C., the cells were fixed in 0.5% gluteraldehyde in medium for 10 min, washed three times with DDW, once with 0.1M sodium borate buffer pH 8.5 and stained with 1% methylene blue dissolved in 0.1M borate buffer solution for 60 min. Excess dye was washed out and cell-bound dye was eluted with 200 μl/well of 0.1 M HCl. The optical density value was read at 620 nm in ELISA plate reader. The data was analyzed in Microsoft Excel, using the vehicle control as 100% proliferation. The assays were performed in triplicates. The values in table 1 represent IC50 values derived from the dose-dependent growth curves obtained.
(§4) Compounds 6, 7, 8, and 9 were tested for their inhibitory potential in cell proliferation assay. In this assay cells were exposed to increasing concentrations of the molecules (at 0.1% DMSO in all wells) a day after seeding. Medium and inhibitors were refreshed every day, and following three days of treatment, cells were fixed and stained with methylene-Blue. IC50 values were determined from the curves of the optical density against compound concentration. The assay was performed in triplicates.

In assay [6] the test system is A2780. The assay can be described thus: Proliferation assay A2780. It counts as cell-based. The note with it: Homo sapiens, Ovarian, 72 hours. Here is the method:
as §3, §4

The test system of assay [7] is LIM 1899. The assay can be described thus: Proliferation assay LIM 1899. Format: cell-based. The conditions noted are these: Colon, 72 hours. As to the method: as §3, §4
The test system of assay [8] is QG56. The assay can be described thus: Proliferation assay QG56. It counts as cell-based. The note with it: Homo sapiens, QG-56, Lung, 72 hours. Here is the method: as §3, §4
For assay [9], the system named is NCl-H1975. The assay can be described thus: Proliferation assay NCl-H1975. Format: cell-based. The conditions noted are these: Lung, 72 hours. As to the method: as §3, §4
For assay [10], the system named is PC-10. The assay can be described thus: Proliferation assay PC-10. Format: cell-based. The conditions noted are these: Homo sapiens, PC10, Lung, 72 hours. Here is the method:
as §3, §4

In assay [11] the test system is NCl-H526. The assay can be described thus: Proliferation assay NCl-H526. The note with it: Lung, 72 hours. It counts as cell-based. Here is the method:
as §3, §4

Assay [12] has as its system U87MG. The assay can be described thus: Proliferation assay U87MG. It counts as cell-based. The conditions noted are these: Homo sapiens, U-87 MG, Glioma, 72 hours. As to the method:
as §3, §4

Assay [13] relates to MO59J. The assay can be described thus: Proliferation assay MO59J. It counts as cell-based. The note with it: Glioma, 72 hours. Here is the method: as §3, §4
The subject of assay [14] is SKBR-3. The assay can be described thus: Proliferation assay SKBR-3. The conditions noted are these: Homo sapiens, SK-BR-3, Breast, 72 hours. Format: cell-based. As to the method: as §3, §4
Assay [15] has as its system T24P. The assay can be described thus: Proliferation assay T24P. Format: cell-based. The conditions noted are these: Bladder, 72 hours. As to the method: as §3, §4
Assay [16] relates to PANC1. The assay can be described thus: Proliferation assay PANC1. Format: cell-based. The conditions noted are these: Homo sapiens, PANC-1, Pancreatic, 72 hours. As to the method:
as §3, §4

The subject of assay [17] is AsPC1. The assay can be described thus: Proliferation assay AsPC1. The note with it: Homo sapiens, Pancreatic, 72 hours. It counts as cell-based. Here is the method:
as §3, §4

Here are results for four compounds from patent US8058309B2, “Protein kinase modulators and therapeutic uses thereof” (Novotyr Therapeutics Ltd., priority 2006, dated 2011).

Entries after “also recorded” stand apart in the source; their conditions may differ.

Consider `N#C/C(=C\c1cc(O)c(O)c(I)c1)C(=S)NCc1cc(O)c(O)c(O)c1` [Compound 8], for which the “IRS1 Ser-phosphorylation” value in assay [1] is listed as “trigger IRS1-ser phosphorylation”; in assay [2] it was “trigger IRS1-ser phosphorylation; also recorded: detected”. Besides, the IC50 in assay [3] is 1000 nM; in assay [4], 5.6 µM; in [5] it was 2100 nM; in [6] it was 600 nM; in assay [7], 7.1 µM; in assay [8], 4.4 µM. Moreover, the IC50 in [9] is 2300 nM; in [10], 5.8 µM; in [11], over 10 µM; in assay [12] it was 2.4 µM; in assay [13], 1600 nM; in assay [14] it was 9 µM. The IC50 in [15] is 900 nM; in assay [16] it was over 10 µM; in assay [17] it was 9.5 µM.
On to `Oc1cc(CNC(=S)/C=C/c2cc(O)c(O)c(Br)c2)cc(O)c1O` [Compound 9], for which the entries for the “IRS1 Ser-phosphorylation” value in assay [1] and in assay [2] were “trigger IRS1-ser phosphorylation” and “trigger IRS1-ser phosphorylation; also recorded: detected”, respectively. The IC50 in [3] was found to be 1200 nM; in assay [4], 1.6 µM; in assay [5], 6900 nM; in assay [6] it was 400 nM; in assay [7], 2 µM; in assay [8] it was 2 µM. The IC50 in [9] was 2700 nM; in [10], 3.8 µM; in [11], over 10 µM; in [12], 6.6 µM; in [13] it was 900 nM; in [14], 6 µM. Besides, the IC50 is 1400 nM in [15], over 10 µM in [16] and over 10 µM in assay [17].
As for `N#C/C(=C\c1cc(O)c(O)c(Br)c1)C(=S)NCc1cc(O)c(O)c(O)c1` [Compound 7], the “Cellular levels of IRS1” value in assay [1] is on record as “induce a decrease in the cellular levels”. Besides, the “IRS1 Ser-phosphorylation” value is “increase in IRS1 Ser-phosphorylation” in [1] and “detected” in assay [2]. In addition, the IC50 was determined as 4200 nM in [3]; 2.8 µM in [4]; 2600 nM in assay [5]; 600 nM in assay [6]; 7.6 µM in [7]; 5.2 µM in [8]. Besides, the IC50 in assay [9] is 2500 nM; in [10] it was 5.2 µM; in assay [11] it was over 10 µM; in assay [12], 6.9 µM; in assay [13], 2100 nM; in assay [14] it was 9.9 µM. Further, the IC50 in assay [15] is 1200 nM; in assay [16], over 10 µM; in [17], over 10 µM.
Take `N#C/C(=C\c1cc(O)c(O)c(Br)c1)C(=S)NCc1cc(O)c(O)c(Br)c1` [Compound 6]: the “Cellular levels of IRS1” value in [1] is on record as “has no effect”. Moreover, the IC50 is 700 nM in assay [3]; 9.5 µM in assay [4]; over 10000 nM in assay [5]; 6800 nM in assay [6]; over 10 µM in assay [7]; over 10 µM in [8]. Further, the half-maximal inhibitory concentration (IC50) in [9] is over 10000 nM; in assay [10], over 10 µM; in assay [11], over 10 µM; in assay [12], over 10 µM; in assay [13] it was 8300 nM; in [14], over 10 µM. Also, the IC50 in assay [15] was over 10000 nM; in assay [16] it was over 10 µM; in [17], over 10 µM.
